Test results as given in publication PMC9340770 (Journal of Medicinal Chemistry, 2022).
Read-outs that look alike come from different tables or passages of the source.

Experiments:
[1] = test system: phosphorylated ERK1/2 (pERK) in MKN1 cells; test: cells; assay type: cell-based; conditions: Homo sapiens
[2] = biological target: T1, human EGFR (Homo sapiens, UniProt P00533); assay type: biochemical
T1 construct: purchased Reaction Biology

[3] = Human liver microsome intrinsic clearance; assay type: in vitro ADME; conditions: human liver microsomes
[4] = in vivo; conditions: CD-1, mouse, pH 5; for clearance: iv, 3 mg/kg; for AUC(0-t) / bioavailability: po, 100 mg/kg
[5] = test system: MIA PaCa-2 tumor mouse xenograft; test: Antitumor efficacy study in MIA PaCa-2 mouse xenograft; conditions: single agent MRTX849, 10 mg/kg qd, 25 days
[6] = test system: pERK in MIA PaCa-2 tumors; test: Tumor pharmacodynamic (pERK) study in MIA PaCa-2 mouse xenograft
[7] = MKN-1, read-out: MKN1 Cell IC50
[8] = MKN-1, In-Cell Western Assay measuring pERK, read-out: MKN1 Cell IC50
[9] = PO CD-1 mice, 100 mg/kg, 0.5% MC (4000 cps)/0.2% Tween80 in water

T1 sequence (P00533 25-1210): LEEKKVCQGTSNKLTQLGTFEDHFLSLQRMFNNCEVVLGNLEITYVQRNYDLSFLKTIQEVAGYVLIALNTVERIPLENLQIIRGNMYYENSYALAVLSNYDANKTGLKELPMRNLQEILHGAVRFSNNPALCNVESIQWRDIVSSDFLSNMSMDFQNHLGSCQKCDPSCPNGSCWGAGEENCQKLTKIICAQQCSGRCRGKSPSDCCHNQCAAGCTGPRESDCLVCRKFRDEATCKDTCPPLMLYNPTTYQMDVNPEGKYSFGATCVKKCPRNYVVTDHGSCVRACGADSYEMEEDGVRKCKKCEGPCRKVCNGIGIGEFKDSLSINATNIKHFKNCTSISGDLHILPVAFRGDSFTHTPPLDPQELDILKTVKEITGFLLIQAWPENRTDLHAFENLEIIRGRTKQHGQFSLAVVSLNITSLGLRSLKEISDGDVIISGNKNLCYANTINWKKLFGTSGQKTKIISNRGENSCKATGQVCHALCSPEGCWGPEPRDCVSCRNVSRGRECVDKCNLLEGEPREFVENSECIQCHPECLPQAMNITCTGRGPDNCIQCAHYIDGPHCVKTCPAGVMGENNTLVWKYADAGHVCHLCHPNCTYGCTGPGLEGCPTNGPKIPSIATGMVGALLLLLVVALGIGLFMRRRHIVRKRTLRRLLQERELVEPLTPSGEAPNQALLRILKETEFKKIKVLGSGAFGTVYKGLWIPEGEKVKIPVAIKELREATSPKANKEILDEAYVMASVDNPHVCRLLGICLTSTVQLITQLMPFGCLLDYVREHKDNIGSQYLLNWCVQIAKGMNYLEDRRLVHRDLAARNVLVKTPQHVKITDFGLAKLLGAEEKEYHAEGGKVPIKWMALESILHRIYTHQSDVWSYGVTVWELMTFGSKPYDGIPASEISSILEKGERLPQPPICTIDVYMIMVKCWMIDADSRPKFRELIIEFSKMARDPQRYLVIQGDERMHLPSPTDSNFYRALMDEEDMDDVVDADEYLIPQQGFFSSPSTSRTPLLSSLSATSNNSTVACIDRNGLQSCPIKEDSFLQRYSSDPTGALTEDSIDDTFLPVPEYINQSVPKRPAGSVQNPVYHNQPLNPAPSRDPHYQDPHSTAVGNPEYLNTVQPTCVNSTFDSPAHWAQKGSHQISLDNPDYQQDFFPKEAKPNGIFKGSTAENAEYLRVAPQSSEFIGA

Which IC50 [1, 7] does the source give for `Cc1c([C@@H](C)Nc2n[nH]c(=O)c3ccc(N4CCNCC4)cc23)cccc1C(F)(F)F` [Compound 21] here?
Its IC50 is 114 nM.

Which results are given for `COc1cc2cnnc(N[C@H](C)c3cccc4ccccc34)c2cc1OC` [Compound 7]?
IC50 [1, 8]: > 10000 nM; IC50 ([2]; 10 μM ATP): > 10000 nM

Which IC50 [1, 7] does the source give for `Cc1c([C@@H](C)Nc2nn(C)c(=O)c3ccc(N4CCNCC4)cc23)cccc1C(F)(F)F` [Compound 22] here?
The IC50 was 881 nM.

With `Cc1c([C@@H](C)Nc2nnc(C)c3ccc(C4CCNCC4)cc23)cccc1C(F)(F)F` [Compound 16] as the compound, how does the IC50 [1, 7] read?
Its IC50 is 183 nM.

Which results are given for `Cc1nnc(N[C@H](C)c2cccc(C(F)(F)F)n2)c2cc(N3CCOCC3)ncc12` [Compound 26]?
CLint scaled [3]: 206 mL/min/kg; IC50 [1, 7]: 185 nM

Which results are given for `Cc1c([C@@H](C)Nc2nnc(C)c3ccc(N4CCNCC4)cc23)cccc1C(F)(F)F` [Compound 15]?
clearance [4]: 85 mL/min/kg; AUC(0-t) [4]: 1300 ng·h/mL; bioavailability [4]: 11%

With `Cc1c(Br)cccc1[C@@H](C)Nc1nnc(C)c2cnc(N3CCOCC3)cc12` [Compound 31] as the compound, how does the CLint scaled [3] read?
The CLint scaled was 396 mL/min/kg.

What about the IC50 [1, 7] of the same compound?
Its IC50 is 114 nM.

Which CLint scaled [3] does the source give for `Cc1nnc(N[C@H](C)c2cccc(C(F)(F)F)c2F)c2cc(N3CCOCC3)ncc12` [Compound 25] here?
The CLint scaled was 214 mL/min/kg.

With `Cc1nnc(N[C@H](C)c2cc(N)cc(C(F)(F)F)n2)c2cc(N3CCOCC3)ncc12` [Compound 27] as the compound, how does the CLint scaled [3] read?
The CLint scaled was 18 mL/min/kg.

With `CNCc1ccccc1-c1csc([C@@H](C)Nc2nncc3cc(OC)c(OC)cc23)c1` [Compound 11] as the compound, how does the IC50 [2] read?
Its IC50 is greater than 10000 nM.

Which results are given for `C=C(F)C(=O)N1CCN(c2nc(OC[C@@H]3CCCN3C)nc3c2CCN(c2cccc4cccc(Cl)c24)C3)C[C@@H]1CC#N` [MRTX849, adagrasib, reference compound]?
tumor growth inhibition (TGI) [5]: 94%; tumor pERK modulation, single agent ([6]; MRTX849 at 10 mg/kg qd PO, 21 days): No modulation; plasma concentration of MRTX849 ([6]; MRTX849 dosed in combination with MRTX0902): remained unchanged

Which CLint scaled [3] does the source give for `Cc1nnc(N[C@H](C)c2cn(C)nc2C(F)(F)F)c2cc(N3CCOCC3)ncc12` [Compound 30] here?
Its CLint scaled is 37 mL/min/kg.

What about the IC50 [1, 7] of the same compound?
Its IC50 is 1150 nM.

For `Cc1nn(C)cc1[C@@H](C)Nc1nnc(C)c2cnc(N3CCOCC3)cc12` [Compound 29], which CLint scaled [3] is on record?
The CLint scaled was 15 mL/min/kg.

What about the IC50 [1, 7] of the same compound?
Its IC50 is 3280 nM.

For `Cc1ncccc1[C@@H](C)Nc1nnc(C)c2cnc(N3CCOCC3)cc12` [Compound 28], which CLint scaled [3] is on record?
Its CLint scaled is 21 mL/min/kg.

Which IC50 [1, 8] does the source give for `Cc1c(C#N)cccc1[C@@H](C)Nc1nnc(C)c2cc(C#N)c(N3CCOCC3)cc12` [Compound 37] here?
The IC50 was 490 nM.

For `COc1nnc(N[C@H](C)c2cccc(C(F)(F)F)c2C)c2cc(N3CCNCC3)ccc12` [Compound 19], which IC50 [1, 8] is on record?
The IC50 was greater than 10000 nM.

Which results are given for `COc1cc2cnnc(N[C@H](C)c3ccccc3)c2cc1OC` [Compound 6]?
IC50 [1, 8]: > 10000 nM; IC50 ([2]; 10 μM ATP): > 10000 nM

For `Cc1c(C#N)cccc1[C@@H](C)Nc1nnc(C)c2cc(Cl)c(N3CCOCC3)cc12` [Compound 36], which IC50 [1, 7] is on record?
The IC50 was 286 nM.

With `Cc1c(C#N)cccc1[C@@H](C)Nc1nnc(C)c2cc(F)c(N3CCOCC3)cc12` [Compound 35] as the compound, how does the IC50 [1, 8] read?
The IC50 was 120 nM.

With `Cc1nnc(N[C@H](C)c2cccc(C#N)c2)c2cc(N3CCOCC3)ncc12` [Compound 34] as the compound, how does the CLint scaled [3] read?
The CLint scaled was 505 mL/min/kg.

For `Cc1c([C@@H](C)Nc2nnc(C)c3cnc(N4CCOCC4)cc23)cccc1C(F)(F)F` [Compound 24], which “tumor pERK modulation, single agent” value ([6]; 24 at 100 mg/kg bid PO, 21 days, 3 h after last dose) is on record?
Its value is “No modulation”.

And the “reduction in tumor pERK, combination” value ([6]; 24 at 100 mg/kg bid in combination with MRTX849 10 mg/kg qd, PO, 21 days, 3 h after last dose)?
Its value is 69%.

And the clearance [4]?
Its clearance is 17 mL/min/kg.

And the CLint scaled [3]?
The CLint scaled was 114 mL/min/kg.

And the IC50 [1, 8]?
Its IC50 is 26 nM.

What about the “mPK PO Dosing %F” value [9] of the same compound?
Its value is roughly 100%.

What about the “mPK PO Dosing AUC0-last” value [9] of the same compound?
The value was 130318 ng·h/mL.

With `COc1cc2cnnc(N[C@H](C)c3cccc(C(F)(F)F)c3C)c2cc1OC` [Compound 10] as the compound, how does the IC50 ([2]; 10 μM ATP) read?
Its IC50 is greater than 10000 nM.

For `Cc1c([C@@H](C)Nc2nnc(C(F)(F)F)c3ccc(N4CCNCC4)cc23)cccc1C(F)(F)F` [Compound 18], which IC50 [1, 8] is on record?
The IC50 was greater than 10000 nM.

What does the source list for `COc1cc2cnnc(N[C@H](C)c3cccc(C(F)(F)F)c3)c2cc1OC` [Compound 8]?
IC50 [1, 7]: 958 nM; IC50 ([2]; 10 μM ATP): > 10000 nM

For `Cc1c([C@@H](C)Nc2nnc(C)c3cnc(N4CCOCC4)cc23)cccc1S(C)(=O)=O` [Compound 33], which CLint scaled [3] is on record?
The CLint scaled was 7.9 mL/min/kg.

With `COc1cc2cnnc(N[C@H](C)c3ccccc3C)c2cc1OC` [Compound 9] as the compound, how does the IC50 [1, 8] read?
Its IC50 is greater than 10000 nM.

And the IC50 ([2]; 10 μM ATP)?
Its IC50 is greater than 10000 nM.

For `Cc1c([C@@H](C)Nc2nnc(C)c3cnc(N4CCNCC4)cc23)cccc1C(F)(F)F` [Compound 23], which clearance [4] is on record?
The clearance was 52 mL/min/kg.

And the AUC(0-t) [4]?
Its AUC(0-t) is 9970 ng·h/mL.

And the bioavailability [4]?
Its bioavailability is 44%.

What about the CLint scaled [3] of the same compound?
Its CLint scaled is 27 mL/min/kg.

And the Eh (mouse, IV 3 mg/kg)?
Its Eh is 0.58.
